# Measured values reported in patent US7214669B2, “Tetracycline derivatives and methods of use thereof” (Tetragenex Pharmaceuticals, Inc., priority 2001, dated 2007).
# Values joined by “and” are separate entries in the source; they are usually repeats but may differ in a detail not shown here. Equal values may be shown once. Where a name gives a salt, the structure may show the parent alone.
# Experiments:
# [1] = system: MAT LyLu tumor; test: Dunning MAT LyLu tumor model, survival; format: in vivo, Copenhagen rats; conditions: for Surviving Number: 10/group, dosed by gavage
# Method: (§2) Fresh dosing solutions containing 10 mg/ml of each test article in 2% carboxymethylcellulose were prepared daily and used in the testing.
# (§3) Three groups of animals (10/group) were dosed by gavage with either vehicle, or one of the two analogs daily for three weeks, and then three times per week until death or sacrifice. Dosing was begun seven days prior to implantation of the MAT LyLu tumor cells by tail vein injection. Approximately 0.1 ml of tumor cell suspension was injected into one of the lateral tail veins. The dose to be chosen was based on two factors: (1) efficacy and (2) morbidity associated with the analog, if any.
# [2] = system: C8161 human melanoma cells; test: Membrane Invasion Culture System (MICS) chemo-invasion assay; format: cell-based; conditions: 24 hours, + = increased invasiveness
# Summary of the method: (§1)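 Fifty thousand cells were seeded above a 35 μm laminin/collagen IV/gelatin barrier on a 10 μm-pore filter, with serum-free RPMI plus 50% fibroblast-conditioned medium below as chemoattractant. Compound at 1, 10 or 25 μg/ml, or DMSO vehicle, was present for 24 h. Invaded cells were collected, Wright-stained and counted over 5 fields.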
# [3] = system: Arp-1 human myeloma cancer cells; test: as above; format: cell-based; conditions: 24 hours, + = increased invasiveness
# Summary of the method: as §1
# [4] = system: MDA-MB-231 human breast cancer cells; test: as above; format: cell-based; conditions: 24 hours, + = increased invasiveness
# Summary of the method: as §1
# [5] = system: RPMI-8226 human myeloma cancer cells; test: as above; format: cell-based; conditions: 24 hours, + = increased invasiveness
# Summary of the method: as §1
# [6] = system: PC-3 ML human prostate cancer cells; test: as above; format: cell-based; conditions: 24 hours, + = increased invasiveness
# Summary of the method: as §1
# [7] = system: Ark human myeloma cancer cells; test: as above; format: cell-based; conditions: 24 hours, + = increased invasiveness
# Summary of the method: as §1
# [8] = Dunning MAT LyLu tumor model, weekly body weight; format: in vivo; conditions: compared to the control group
# Method: as §2, §3
# [9] = molecular target: T1, MMP2 (Gelatinase A) (Homo sapiens, UniProt P08253); test: MMP2 (Gelatinase A) inhibition, 14C gelatin release; format: biochemical; conditions: 37° C., 16 hours; read-out: MMP-2 inhibitory activity, IC50
# T1 sequence (P08253 110-660): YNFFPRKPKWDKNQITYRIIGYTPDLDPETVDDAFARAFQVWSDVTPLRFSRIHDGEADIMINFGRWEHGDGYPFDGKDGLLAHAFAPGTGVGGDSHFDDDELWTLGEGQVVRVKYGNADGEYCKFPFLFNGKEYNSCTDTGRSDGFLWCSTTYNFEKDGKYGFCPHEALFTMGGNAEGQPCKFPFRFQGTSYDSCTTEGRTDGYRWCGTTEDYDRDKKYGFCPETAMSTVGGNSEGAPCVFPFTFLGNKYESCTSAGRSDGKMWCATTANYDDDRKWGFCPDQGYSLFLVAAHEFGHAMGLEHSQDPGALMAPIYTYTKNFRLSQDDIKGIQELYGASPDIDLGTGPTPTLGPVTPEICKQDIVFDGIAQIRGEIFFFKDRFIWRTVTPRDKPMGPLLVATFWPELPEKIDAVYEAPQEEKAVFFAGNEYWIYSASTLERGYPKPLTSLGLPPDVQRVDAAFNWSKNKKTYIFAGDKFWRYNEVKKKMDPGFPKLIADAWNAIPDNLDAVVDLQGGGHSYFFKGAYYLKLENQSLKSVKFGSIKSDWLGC
# Method: Protocol for Measuring MMP2 (Gelatinase A) Inhibition
# MMP2 activity was determined by the release of trichloracetic acid, TCA, soluble fragments from ^14C acetylated rat skin type I gelatin (Methods in Enzymology 248, 470, 1995. Biochem. J. 195, 1981)
# • 100 μg ^14C labelled gelatin (type I collagen denatured 60° C. 20 min) • 50 mM Tris HCl pH 7.9 • 15 mM CaCl2, 0.02% azide • Human recombinant MMP1, 0.1–0.5 nM • ±Tetracycline (up to 1 MM) in a total volume of 250 μl.
# Incubations were set at 37° C. for 16 hours. The reaction was stopped by cooling the incubations and addition of 50 μl cold 90% (w/v) trichloracetic acid with careful mixing. TCA precipitation was allowed to proceed for 15 minutes at 4° C. prior to cetrifugation at 10,000 g for 10 minutes at 4° C. 200 μl of the TCA supernatant was taken for the determination of radioactive content by scintillation counting (Packard Opti Phase Supermix scintillation fluid). Only data derived from within the linear part of the assay (10–70% lysis) were utilized. The percentage inhibition of MMP2 by each tetracycline concentration was plotted to derive the IC50 value, using linear regression analysis.
# [10] = molecular target: Human recombinant MMP9 (Homo sapiens, UniProt P14780); test: MMP9 (Gelatinase B) inhibition, 14C gelatin release; format: biochemical; conditions: 37° C., 16 hours; read-out: MMP-9 inhibitory activity, IC50
# Chain of Human recombinant MMP9 (P14780 94-707): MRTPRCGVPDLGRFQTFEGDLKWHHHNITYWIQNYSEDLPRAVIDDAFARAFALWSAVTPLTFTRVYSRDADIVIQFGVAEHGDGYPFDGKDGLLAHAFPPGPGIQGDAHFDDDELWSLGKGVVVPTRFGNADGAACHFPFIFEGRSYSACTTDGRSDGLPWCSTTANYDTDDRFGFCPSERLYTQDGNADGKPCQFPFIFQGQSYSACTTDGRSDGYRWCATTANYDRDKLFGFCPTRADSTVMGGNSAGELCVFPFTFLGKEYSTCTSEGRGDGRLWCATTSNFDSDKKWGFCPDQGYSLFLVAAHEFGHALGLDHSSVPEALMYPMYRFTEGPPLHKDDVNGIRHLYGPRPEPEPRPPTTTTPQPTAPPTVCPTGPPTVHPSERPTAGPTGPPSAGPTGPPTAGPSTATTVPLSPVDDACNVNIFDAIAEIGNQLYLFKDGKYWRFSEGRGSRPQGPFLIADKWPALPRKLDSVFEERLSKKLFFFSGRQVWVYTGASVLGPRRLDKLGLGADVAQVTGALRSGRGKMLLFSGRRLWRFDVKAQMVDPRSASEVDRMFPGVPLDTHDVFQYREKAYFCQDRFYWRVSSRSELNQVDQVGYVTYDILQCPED
# Method: Protocol for Measuring MMP9 (Gelatinase B) Inhibition
# MMP9 activity was determined by the release of trichloracetic acid, TCA soluble fragments from ^14C acetylated rat skin type I (Methods in Enzymology 248, 470, 1995. Biochem. J. 195, 1981)
# • 100 μg ^14C labelled gelatin (collagen denatured 60° C. 20 min) • 50 mM Tris HCl pH 7.9 • 15 mM CaCl2, 0.02% azide • Human recombinant MMP9, 1.2–2 nM • ±Tetracycline (up to 1 mM) in a total volume of 250 μl.
# Incubations were at 37° C. for 16 hours. The incubations were stopped by cooling the incubations and addition of 50 μl cold 90% (w/v) trichloracetic acid with careful mixing. TCA precipitation was allowed to proceed for 15 minutes at 4° C. prior to centrifugation at 10,000 g for 10 minutes at 4° C. 200 μl of the TCA supernatant was taken for the determination of radioactive content by scintillation counting (Packard Opti Phase Supermix scintillation fluid). Only data derived from within the linear part of the assay (10–70% lysis) were utilized. The percentage inhibition of MMP9 by each tetracycline concentration were plotted to derive the IC50 value.
# [11] = molecular target: Human recombinant MMP3 (Homo sapiens, UniProt P08254); test: MMP3 (Stromelysin 1) inhibition, 14C casein release; format: biochemical; conditions: 37° C., 16 hours; read-out: MMP-3 inhibitory activity, IC50
# Chain of Human recombinant MMP3 (P08254 100-477): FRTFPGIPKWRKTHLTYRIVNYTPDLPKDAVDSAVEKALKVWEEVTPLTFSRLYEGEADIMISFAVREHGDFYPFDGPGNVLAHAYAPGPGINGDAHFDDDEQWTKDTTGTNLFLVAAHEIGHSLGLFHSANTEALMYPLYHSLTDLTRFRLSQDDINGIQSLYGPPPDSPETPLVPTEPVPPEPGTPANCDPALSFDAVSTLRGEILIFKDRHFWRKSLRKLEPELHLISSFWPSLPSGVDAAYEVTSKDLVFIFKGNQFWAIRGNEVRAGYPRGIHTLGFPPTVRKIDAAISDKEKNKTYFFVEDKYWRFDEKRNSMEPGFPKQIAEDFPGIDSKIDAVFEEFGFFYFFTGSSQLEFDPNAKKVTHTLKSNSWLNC
# Method: Protocol for Measuring MMP3 (Stromelysin 1) Inhibition
# • 100 μg ^14C casein (7000 dpm) • 50 mM Tris HCl, pH 7.9 • 15 mM CaCl2, 0.02% azide • Human recombinant MMP3, 0.25–1.0 nM • ±tetracycline (up to 1 mM) in a total volume of 250 μl.
# Incubations were at 37° C. for 16 hours. The reaction was stopped by the addition of 500 μl cold 18% TCA and standing on ice for 15 minutes. TCA precipitates were removed by centrifugation at 10,000 g for 10 minutes at 4° C. and 200 μl supernatant was taken for scintillation counting. Only data derived from within the linear part of the assay (10–60% lysis) were utilized. The percentage inhibition of MMP3 by each concentration of the candidate tetracycline was plotted to derive the IC50 value, using linear regression analysis.
# [12] = molecular target: T2, Human recombinant MMP7 (Homo sapiens, UniProt P09237); test: MMP7 (Matrilysin) inhibition, 14C casein release; format: biochemical; conditions: 37° C., 16 hours; read-out: MMP-7 inhibitory activity, IC50
# T2 sequence (P09237 95-267): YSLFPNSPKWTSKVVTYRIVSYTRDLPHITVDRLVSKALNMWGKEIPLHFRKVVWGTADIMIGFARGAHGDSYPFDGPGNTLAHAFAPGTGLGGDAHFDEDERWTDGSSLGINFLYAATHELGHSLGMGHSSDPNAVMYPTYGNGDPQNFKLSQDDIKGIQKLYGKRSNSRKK
# Method: MMP7 activity was determined by the release of trichloracetic acid, TCA, soluble fragments from ^14C acetylated β casein (Sigma) as described in Methods in Enzymology 248, 451 (1995).
# • 100 μg ^14C casein (7000 dpm) • 50 mM Tris HCl, pH 7.9 • 15 mM CaCl2, 0.02% azide • Human recombinant MMP7, 1.5 nM • ±tetracycline (up to 1 mM) in a total volume of 250 μl.
# Incubations were at 37° C. for 16 hours. The incubation was stopped by the addition of 500 μl cold 18% TCA and standing on ice for 15 minutes. TCA precipitates were removed by centrifugation at 10,000 g for 10 minutes at 4° C., and 200 μl supernatant was taken for scintillation counting. Only data derived from within the linear part of the assay (10–60% lysis) were utilized. The percentage inhibition of MMP7 by each concentration of the candidate tetracycline were plotted to derive the IC50 value.
# [13] = molecular target: Human recombinant MMP14 (Homo sapiens, UniProt P50281); test: MMP14 (MTI-MMP) inhibition, 14C collagen release; format: biochemical; conditions: 35° C., 15 hours; read-out: MMP-14 inhibitory activity, IC50
# Method: Protocol for Measuring MMP14 (MTI-MMP) Inhibition by Tetracycline Derivatives
# MMP14 activity was determined by the release of soluble ^14C labelled collagen fragments from ^14C acetylated rat skin type I collagen (Methods in Enzymology 80 711, 1981).
# • 100 μg ^14C labelled collagen (5–6000 dpm) • 50 mM Tris HCL pH 7.9 • 15 mM CaCl2 0.02% azide • Human recombinant MMP14 50–100 nM • ±Tetracycline (up to 1 mM) in a total volume of 300 μl.
# Incubations were at 35° C. for 15 hours. Uncleaved collagen fibrils (which form within the first 10 minutes) were removed by centrifugation at 10,000 g 4° C. 10 minutes 200 μl supernatant were counted in Packard Opti Phase Supermix scintillation fluid using a scintillation counter. Only data derived from within the linear part of the assay (10–70% lysis of the collagen) were utilized. Based on percentage inhibition of the activity of MMP1 alone by a range of concentrations of each sample, the IC50 value for each tetracycline was calculated.
# [14] = molecular target: T3, Human recombinant MMP1 (Homo sapiens, UniProt P03956); test: MMP1 (Collagenase-1) inhibition, 14C collagen release; format: biochemical; conditions: 35° C., 5 hours; read-out: MMP-1 inhibitory activity, IC50
# T3 sequence (P03956 100-469): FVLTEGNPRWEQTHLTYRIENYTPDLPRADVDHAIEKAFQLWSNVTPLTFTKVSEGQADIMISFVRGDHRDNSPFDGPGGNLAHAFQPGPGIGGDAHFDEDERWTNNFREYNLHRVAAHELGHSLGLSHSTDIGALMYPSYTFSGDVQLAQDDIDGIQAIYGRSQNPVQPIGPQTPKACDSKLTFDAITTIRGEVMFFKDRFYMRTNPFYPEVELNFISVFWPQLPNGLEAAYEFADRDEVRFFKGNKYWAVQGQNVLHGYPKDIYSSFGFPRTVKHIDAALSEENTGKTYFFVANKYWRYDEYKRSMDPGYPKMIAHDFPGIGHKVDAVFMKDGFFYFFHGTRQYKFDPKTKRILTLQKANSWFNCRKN
Structure (SMILES),"percent inhibition, C8161 (Melanoma) ([2]; 1 ug/mL)","percent inhibition, C8161 (Melanoma) ([2]; 10 ug/mL)","percent inhibition, C8161 (Melanoma) ([2]; 25 ug/mL)","percent inhibition, ARP-1 ([3]; 1 ug/mL)","percent inhibition, ARP-1 ([3]; 10 ug/mL)","percent inhibition, ARP-1 ([3]; 25 ug/mL)","percent inhibition, MDA-MB-231 (Breast) ([4]; 1 ug/mL)","percent inhibition, MDA-MB-231 (Breast) ([4]; 10 ug/mL)","percent inhibition, MDA-MB-231 (Breast) ([4]; 25 ug/mL)","percent inhibition, PC-3 ML (Prostrate) ([6]; 1 ug/mL) [%]","percent inhibition, PC-3 ML (Prostrate) ([6]; 10 ug/mL)","percent inhibition, PC-3 ML (Prostrate) ([6]; 25 ug/mL)","percent inhibition, ARK ([7]; 1 ug/mL)","percent inhibition, ARK ([7]; 10 ug/mL)","percent inhibition, ARK ([7]; 25 ug/mL)",IC50 [9] [µM],IC50 [10] [µM],IC50 [11] [µM],IC50 [12] [µM],IC50 [13] [µM],also measured
"CC1c2ccc(N)c(O)c2C(=O)C2=C(O)C3(O)C(=O)C(C(N)=O)=C(O)C(N(C)C)C3C(O)C21 (stereo not drawn) [Compound 2, 9-amino-6-deoxy-5-hydroxytetracycline H2SO4]",20^B percent,25^B percent,27^B percent,10%,7%,6%,20%,15%,30^B percent,20,8%,15%,20^B percent,9^B percent,10%,–,–,–,–,–,"Surviving Number ([1]; 14 days post tumor implantation): 10; Surviving Number ([1]; 17 days post tumor implantation): 10; Surviving Number ([1]; 24 days post tumor implantation): 10; Surviving Number ([1]; 27 days post tumor implantation): 10; Surviving Number ([1]; 28 days post tumor implantation): 9; Surviving Number ([1]; 29 days post tumor implantation): 9; Surviving Number ([1]; 30 days post tumor implantation): 7; Surviving Number ([1]; 34 days post tumor implantation): 7; Surviving Number ([1]; 42 days post tumor implantation): 7; surviving number after tumor implantation (in words) ([1]; compared to the control group): marked increase in surviving number; percent inhibition, RPMI-8226 (Multiple Myeloma) ([5]; 25 ug/mL, listed as 5): 36% and 42^B percent; body weight changes [8]: indistinguishable body weight changes"
"CC(C)Nc1ccc2c(c1O)C(=O)C1=C(O)C3(O)C(=O)C(C(N)=O)=C(O)C(N(C)C)C3C(O)C1C2C (stereo not drawn) [Compound 3, 9-Isopropylamino-6-deoxy-5-hydroxytetracycline H2SO4]",30^B percent,22^B percent,15^B percent,+13%,+1%,+16%,+8%,+2%,12%,3,+1%,25^B percent,+11%,+6%,+15%,> 1000,136,304,> 1000,216,IC50 [14]: > 1000 µM
"CN(C)c1cc([N+]#N)c(O)c2c1CC1CC3C(N(C)C)C(O)=C(C(N)=O)C(=O)C3(O)C(O)=C1C2=O (stereo not drawn) [Compound 9, 7-dimethylamino-6-demethyl-6-deoxytetracycline-9-diazonium H2SO4 HCL]",–,–,–,+14%,+21^B percent,7%,–,–,–,–,–,–,17^B percent,24^B percent,20^B percent,337,28,154,507,29,"percent inhibition, RPMI-8226 (Multiple Myeloma) ([5]; 1 ug/mL): 21^B percent; percent inhibition, RPMI-8226 (Multiple Myeloma) ([5]; 10 ug/mL): 24^B percent; percent inhibition, RPMI-8226 (Multiple Myeloma) ([5]; 25 ug/mL): 28^B percent; IC50 [14]: 372 µM"
"CN(C)C1C(O)=C(C(N)=O)C(=O)C2(O)C(O)=C3C(=O)c4c(O)c(Br)cc(Br)c4CC3CC12 (stereo not drawn) [Compound 13, 7,9-Dibromo-6-demethyl-6-deoxytetracycline H2SO4]",6%,12%,14%,–,–,–,4%,0%,+9%,8,23^B percent,13%,2%,+7%,1%,48,64,206,> 1000,14,"percent inhibition, RPMI-8226 (Multiple Myeloma) ([5]; 1 ug/mL): +11%; percent inhibition, RPMI-8226 (Multiple Myeloma) ([5]; 10 ug/mL): +13%; percent inhibition, RPMI-8226 (Multiple Myeloma) ([5]; 25 ug/mL): +12%; IC50 [14]: 126 µM"
